Source: patent US8426448B2, “1,5-diphenyl-pyrrolidin-2-one compounds as CB-1 ligands” (Eli Lilly and Company, priority 2008, dated 2013)
Where a name gives a salt, the structure may show the parent alone.

What was measured:
CYP3A = assay: Human CYP fingerprinting, ketoconazole inhibition; type: in vitro ADME; settings: 4 μM, human liver microsomes, 30 min, 10 μM ketoconazole
Description: (§1) CYP fingerprinting is well established technique and is used as an indication of potential risk of drug-drug interactions in the pharmaceutical sciences. Compounds of the present invention may be assayed by well known methods, essentially as follows: Compounds are incubated at 37° C. at a final concentration of 4 μM with pooled, mixed gender, human liver microsomes and 1 mM NADPH (Nicotine Adenine Dinucleotide Phosphate) (final conc.) for 0 and 30 min. without any CYP inhibitor and with each CYP inhibitor in separate incubations for 30 min. Each inhibitor is specific for an individual cytochrome P450. The specific inhibitors used for CYPs 2C9, 2D6 and 3A were sulfaphenazole, quinidine and ketoconazole, respectively. Ketoconazole (CYP3A) is made up at 25 mM in DMSO and then diluted in buffer to a final concentration of 10 μM. Quinidine (CYP2D6) is made up at 5 mM in 50/50 acetonitrile/water and then diluted in buffer to a final concentration of 10 μM. Sulfaphenazole (CYP2C9) is made up at 100 mM in DMSO and then diluted in buffer to a final concentration of 5 μM. Samples are analyzed by LC-MS in positive or negative electrospray mode using a Waters Acquity Ultra Performance LC coupled to a MicroMass Q-T of-2 mass spectrometer.
(§2) Data are analyzed using MetaboLynx™ version 4.1. […]

CYP2C9 = target: T1, CYP2C9 (Homo sapiens, UniProt P11712); assay: Human CYP fingerprinting, sulfaphenazole inhibition; type: in vitro ADME; settings: 4 μM, human liver microsomes, 30 min, 5 μM sulfaphenazole
T1 construct: pooled, mixed gender, human liver microsomes; from tissue; host or cells: pooled, mixed gender human liver microsomes
T1 sequence (P11712 whole entry): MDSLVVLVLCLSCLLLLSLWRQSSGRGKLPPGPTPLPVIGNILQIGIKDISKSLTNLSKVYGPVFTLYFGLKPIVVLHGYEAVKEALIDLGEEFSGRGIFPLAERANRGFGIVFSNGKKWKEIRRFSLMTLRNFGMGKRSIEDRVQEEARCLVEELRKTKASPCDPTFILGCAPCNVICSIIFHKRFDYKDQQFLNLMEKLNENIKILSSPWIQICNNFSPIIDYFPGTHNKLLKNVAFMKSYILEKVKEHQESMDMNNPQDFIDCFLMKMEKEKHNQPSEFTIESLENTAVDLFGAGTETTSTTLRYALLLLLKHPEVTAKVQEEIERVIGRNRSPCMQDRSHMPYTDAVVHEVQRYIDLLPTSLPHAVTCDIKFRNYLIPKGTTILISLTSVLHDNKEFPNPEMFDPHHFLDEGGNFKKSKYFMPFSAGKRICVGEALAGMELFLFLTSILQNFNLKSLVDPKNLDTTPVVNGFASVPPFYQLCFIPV
Description: as §1, §2

hCB-1 = hCB-1 (Homo sapiens, UniProt P21554); assay: hCB1-CHO antagonist mode SPA GTP-γ-35S binding assay; type: biochemical; parameters: purchased Applied Cell Sciences, Rockville, Md; host or cells: CHO cell membranes; settings: antagonist mode vs methanandamide; read-out: hCB-1 SPA GTPγS CHO Membrane Antagonist Kb
hCB-1, sequence (P21554 whole entry): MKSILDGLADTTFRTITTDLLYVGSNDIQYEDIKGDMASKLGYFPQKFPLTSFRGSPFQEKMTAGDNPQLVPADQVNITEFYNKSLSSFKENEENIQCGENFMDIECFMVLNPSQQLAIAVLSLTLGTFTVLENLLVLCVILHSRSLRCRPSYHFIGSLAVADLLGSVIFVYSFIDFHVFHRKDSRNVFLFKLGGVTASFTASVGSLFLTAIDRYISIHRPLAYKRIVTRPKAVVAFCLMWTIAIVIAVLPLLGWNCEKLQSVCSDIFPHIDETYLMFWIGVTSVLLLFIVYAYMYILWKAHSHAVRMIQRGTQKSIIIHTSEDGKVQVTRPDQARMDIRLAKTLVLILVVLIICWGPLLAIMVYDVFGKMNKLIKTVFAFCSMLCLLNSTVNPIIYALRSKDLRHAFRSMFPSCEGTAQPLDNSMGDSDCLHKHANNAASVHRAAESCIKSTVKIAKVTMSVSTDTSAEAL
Description: Compounds of the present invention may be tested for functional activity at the CB-1 and CB-2 receptors in both agonist and antagonist modes using SPA (Scintillation Proximity Assay) based GTP-γ-^35S binding assays. All assay components are prepared in assay buffer (20 mM HEPES, 100 mM NaCl, 5 mM MgCl2, pH 7.4) at room temperature. Semi-log dilutions of test compound are prepared in assay buffer containing BSA (0.125% final conc.) for the agonist mode assays. For the antagonist mode assays, test compounds are prepared in the same manner but also include an 80% efficacious dose of a full agonist (methanandamide). GTP-γ^35S binding for the antagonist assay may be measured in a 96 well format using a modification of an antibody capture technique previously described. (DeLapp, N W, et al. (1999) J Pharmacol Exp Ther 289:946-955.) The CB-2 receptor agonist activity may be measured using a similar method using hCB2-Sf9 membranes. The CB-1 receptor agonist activity may be measured using a whole membrane capture technique using hCB1-CHO membranes. All incubations are done at room temperature.
hCB1-CHO or rCB1-CHO membranes (Applied Cell Sciences, Rockville, Md.) and GDP (1 μM final) are added to ice cold assay buffer and homogenized. […] Plates are then centrifuged at 700×g for 10 min. and the radioactivity counted.
Data are analyzed as follows: Background is subtracted from all wells. […] Percent antagonist inhibition is calculated by first normalizing the data to the signal generated by a saturating concentration of the full agonist (methanandamide). Then the data are analyzed using a 4-parameter logistic reduced fit (Activity Base™ and XLFit3™ from IDBS, Emeryville, Calif.). Kb values are determined using a modification of the Cheng-Prusoff relationship: Kb=IC50/(1+[agonist]/EC50), where “IC50” is determined from a four parameter fit of displacement curves, “[agonist]” is the agonist challenge concentration (nM), and “EC50” is determined from a four parameter fit of a full agonist concentration response curve (Cheng and Prusoff 1973). […]

CYP2D6 = target: T2, CYP2D6 (Homo sapiens, UniProt P10635); assay: Human CYP fingerprinting, quinidine inhibition; type: in vitro ADME; settings: 4 μM, human liver microsomes, 30 min, 10 μM quinidine
T2 construct: pooled, mixed gender, human liver microsomes; from tissue; host or cells: pooled, mixed gender human liver microsomes
T2 sequence (P10635 whole entry): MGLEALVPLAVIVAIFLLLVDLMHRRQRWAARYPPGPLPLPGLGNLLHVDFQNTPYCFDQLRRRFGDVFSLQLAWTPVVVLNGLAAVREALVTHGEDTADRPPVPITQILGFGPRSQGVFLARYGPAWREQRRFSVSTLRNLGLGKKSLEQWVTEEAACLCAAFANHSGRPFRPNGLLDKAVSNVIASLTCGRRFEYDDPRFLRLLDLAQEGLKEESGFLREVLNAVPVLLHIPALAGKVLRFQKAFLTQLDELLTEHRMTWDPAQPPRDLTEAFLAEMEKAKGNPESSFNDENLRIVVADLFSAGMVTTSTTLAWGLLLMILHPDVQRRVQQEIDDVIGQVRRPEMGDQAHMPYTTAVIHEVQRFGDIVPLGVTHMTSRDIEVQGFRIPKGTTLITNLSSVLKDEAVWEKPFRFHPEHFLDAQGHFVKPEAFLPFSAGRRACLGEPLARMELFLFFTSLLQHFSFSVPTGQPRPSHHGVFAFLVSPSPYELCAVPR
Description: as §1, §2

Dog oral bioavailability = type: in vivo; settings: plasma; fasted female beagle dog; IV 0.25 mg/kg, PO 1 mg/kg; mean±s.d, n=2; based on AUC0-∞
Description: Cohorts of three or four 250-450 gram male Sprague-Dawley rats or approximately 10 kg Beagle dogs (female or male) are used. […] Dogs are administered i.v. by cannulated cephalic vein and blood collections are by jugular vein. Animals are first dosed at 0.25 mg/kg i.v. and blood samples (0.2 mL) are then collected using EDTA as an anticoagulant at 0.0830, 0.25, 0.50, 1, 2, 4, 8, 12, 24, 48, 72, 96, and 120 hours. Next after at least two days and after 18-24 hours fasting, the animals are dosed at 1.0 mg/kg by oral gavage. During the course of a study the total of blood (ml) collected is not to exceed 1% of total body weight in grams. Should larger blood volumes be required, the sampled blood volume is replace with heparinized whole blood from a donor animal. When using a cross-over study design, rats receive a volume of heparinized whole blood following the final sample of each study day approximately equal to that removed during study.
Compound plasma concentrations are measured by LC/MS/MS assays. Data are then analyzed using standard non-compartmental pharmacokinetic analysis. Oral bioavailability is calculated as: (AUC0-infinity,oral/AUC0-infinity,i.v.)×(Dose,i.v./Dose,oral)×100%

Structure (SMILES): CC(C)(N[C@@H]1C[C@H](c2cccc(C(F)(F)F)c2)N(c2ccc(OC(F)(F)F)cc2)C1=O)c1cccc(C(F)(F)F)n1 [28 HCl salt, (3R,5R)-3-[1-methyl-1-(6-trifluoromethyl-pyridin-2-yl)-ethylamino]-1-(4-trifluoromethoxy-phenyl)-5-(3-trifluoromethyl-phenyl)-pyrrolidin-2-one]
- Risk of Drug Drug Interaction (DDI) CYP3A (CYP3A): Low
- Risk of Drug Drug Interaction (DDI) CYP2C9 (CYP2C9): low (a reduction in metabolite peak area of less than 30% (relative to the uninhibited control incubation) receives a designation of low risk of Drug Drug Interaction (DDI))
- Kb (hCB-1): 0.464 nM
- Risk of Drug Drug Interaction (DDI) CYP2D6 (CYP2D6): Low
- bioavailability (Dog oral bioavailability): 32 ± 18%
